In patent US9931380B2, “Medicament for treating olfaction disorder” (priority 2015, dated 2018):

Key:
[1] = Blood sugar level of DM (STZ) mice given the insulin preparation; assay type: in vivo, C57BL/6 mice; conditions: intraperitoneally once a day, 2 to 3 U/kg of insulin detemir
Experimental: (§1) To C57BL/6 mice (normal mice; Japan SLC, Inc) at the age of 10 weeks, 120 mg/kg of streptozotocin (STZ; Sigma-Aldrich) was administered intraperitoneally for three days in a row, on Days 0 (Initial administration), 1, and 2. On Day 7, those with a fasting blood glucose (fasting blood sugar level: FBS) of 250 mg/dl or more were defined as DM mice in which pancreatic β cells were specifically impaired. Moreover, subsequent operations used those with a blood sugar of more than 250 mg/dl at any time after about one week since the administration of STZ.
As the insulin preparation, “Levemir FlexPen (Registered Trademark)” was used (referred to as Levemir). Levemir was administered intraperitoneally into DM mice once a day, with 2 to 3 U/kg of the insulin detemir each. […] The amount of insulin given here was therefore regarded as the amount that can properly resolve the shortages of insulin in the DM mice. The olfactory epithelium tissues of groups of DM mice (group a, group b, and group c) were observed 14 days after the administration of methimazole (Refer to FIGS. 9A and 9B): Each group differs on the time when insulin was additionally given. […] Then, with the use of the above-described method, the number of olfactory nerve cells (OSNs) of olfactory epithelium, the thickness of olfactory epithelium, and the number of OMP positive cells were counted in each group. […]

olfactory epithelium = assay: Regeneration of olfactory epithelium in DM model mice with methimazole-induced olfactory disturbance after insulin administration; assay type: in vivo, C57BL/6 mice; conditions: for number of olfactory nerve cells, DM mice vs normal mice / thickness of olfactory epithelium, DM mice vs normal mice / number of mature olfactory nerve cells (number of OMP positive cells), DM mice vs normal mice: read 14 days after methimazole
Experimental: as §1
To each of positive control mice, which were created by giving only physiological saline to normal mice, and DM mice, 80 mg/kg of methimazole (Siyma-Aldrich) was administered intraperitoneally in order to create model mice with olfactory disturbance. The model mice with olfactory disturbance were created as metabolites of methimazole selectively damaged olfactory epithelium. The mechanism of olfactory disturbance is considered to be the activation of caspase that induces apoptosis in olfactory cells. When normal mice were given methimazole, the damaged olfactory epithelium could recover to the almost normal level about 28 days after the administration. Moreover, normal mice that were given physiological saline instead of methimazole were used as control. Their weight and blood sugar levels of tail veins were measured 28 days after the methimazole injection.
The hearts of mice were perfused with 4% paraformaldehyde in 0.1M phosphate buffer. The mice were sacrificed and fixed 24 hours later with the same fixative. Nostril tissues containing OE were decalcified with a 10% EDTA solution (pH 7.0), and were embedded in paraffin. Coronal sections (with thickness of 4 μm) were cut off and put on silane-coated slides. The deparaffinized sections were autoclaved for 10 minutes in Target Retrieval Solution (S1700; Dako) for antigen retrieval. Immunohistochemistry was conducted with one of the following antibodies: Anti-insulin receptors, anti-phosphorylated insulin receptors, anti-olfactory marker proteins (OMP, goat polyclonal, 1:4000 dilution; Wako Chemicals), anti-activated caspase-3 (rabbit polyclonal, 1:5000; Cell Signaling Technology), anti-Ki-67 (mouse monoclonal, 1:500; BD Biosciences), and anti-c-fos antibodies (Rabbit IgG, 1:1000; Santa Cruz Biotechnology).
In order to suppress the variation of data values that could be caused by anatomical changes (e.g. aerated nasal turbinate) between mice and in the mice, the OE analysis was conducted in such a way as to be limited to OE (olfactory epithelium) of the nasal septum and nasal turbinate's top on the right and left sides in the nasal cavity.
Sections were cut at intervals of 500 μm. The olfactory epithelium included the following two cell lines: Olfactory nerve cells (OSNs) and basal stem cells. Rectangular cells on lamina propria in OE were defined as basal cells. The rest of the cells were defined as OSNs. The thickness, or distance from the lamina propria to the surface, was measured with software known as ImageJ. The number of OSNs labeled with anti-OMP, anti-activated caspase-3, and anti-Ki-67 antibody was quantitatively analyzed by uniquely immunostaining for each antigen and using sections counterstained with hematoxylin. As for connective tissues under the lamina propria, the immunostaining of cells with an intermediate background intensity more than double the standard deviation was regarded as being positive. The number of OSNs and the number of immunostained cells (OMP-positive cells, Ki-67-positive cells, and caspase-3 positive cells) were measured along the total length of the nasal septum in microscopic observation images (of each of normal groups and STZ groups) for both the left and right sides. […]

[2] = group a: 3 U/kg i.p. day 1 to 14
[3] = group b as printed: 3 U/kg i.p. day 1 to 7
[4] = group b: 3 U/kg i.p. only day 1 to 7, 14 days after onset of disturbance
[5] = groups a (day 1 to 14) and c (day 7 to 14), 3 U/kg i.p., 14 days after onset of disturbance

insulin detemir [Levemir]
blood sugar levels [1]: around 130 mg/dl | number of olfactory nerve cells, DM mice vs normal mice (olfactory epithelium; [2]): no significant difference | thickness of olfactory epithelium, DM mice vs normal mice (olfactory epithelium; [2]): no significant difference | number of mature olfactory nerve cells (number of OMP positive cells), DM mice vs normal mice (olfactory epithelium; group a: 3 U/kg i.p. every day, day 1 to 14 after methimazole): broadly comparable to normal mice | number of olfactory nerve cells, DM mice vs normal mice (olfactory epithelium; [3]): no significant difference | thickness of olfactory epithelium, DM mice vs normal mice (olfactory epithelium; [3]): no significant difference | number of mature olfactory nerve cells (number of OMP positive cells), DM mice vs normal mice (olfactory epithelium; group b as printed: 3 U/kg i.p. only day 1 to 7 after methimazole): broadly comparable to normal mice | number of OMP positive cells, compared with groups a and c (olfactory epithelium; [4]): significant decreases | number of OSNs, compared with groups a and c (olfactory epithelium; [4]): significant decreases | thickness of olfactory epithelium, compared with groups a and c (olfactory epithelium; [4]): significant decreases | number of OMP positive cells (olfactory epithelium; [5]): no significant differences | number of OSNs (olfactory epithelium; [5]): no significant differences | thickness of olfactory epithelium (olfactory epithelium; [5]): no significant differences
